Experimental data taken from US7608416B2, “Targeting mPGES-1 as a treatment for inflammation which avoids cardiovascular risk” (The Trustees of the University of Pennsylvania, priority 2004, dated 2009).

Assays:
[1] = system: PGI2 biosynthesis (urinary 2,3-dinor 6-keto PGF1α, PGIM); experiment: Urinary PGIM (2,3-dinor 6-keto PGF1α) excretion, 24 h urine, GC/MS; assay type: in vivo, mouse; details: DFU, WT male mice, before vs after administration (FIG. 2)
Procedure: Eicosanoid analyses: Urinary TxM and PGIM were measured in twenty four hour urines collected in metabolic cages. After extraction and purification by thin layer chromatography, they were analyzed by a stable isotope dilution reverse phase (C18) HPLC/tandem mass spectrometry assay and gas chromatography/mass spectrometry, respectively, as previously described (Egan et al., 2005, Circulation 111: 334-242).
The relative contribution of the PGHS enzymes, PGHS-1 and PGHS-2, to the biosynthesis of PGI2 and TxA2 was assessed by measuring urinary 2,3-dinor 6-keto PGF1α (PGIM) and 2,3-dinor TxB2 (TxM) respectively. […] PGIM and TxM was also assessed in PGHS-1 knockdown (KD) mice. […] Traditional NSAIDS and NSAIDs selective for PGHS-2 inhibit COX activity, not POX activity. Tyr385 in PGHS (ovine PGH-1 numbering) is critical for cyclooxygenase (COX) catalysis, but is uninvolved in peroxidase (POX) activity. PGIM and TxM was also assessed in PGHS-2^Y385F mice, in which the cyclooxygenase, but not the peroxidase (POX) function, of PGHS-2 is inactivated, thereby mimicking the effect of a selective PGHS-2 inhibitor (Yu et al., 2005a, J. Clin. Invest. (Submitted manuscript)).

[2] = system: PGE2 biosynthesis (urinary PGEM); experiment: Urinary PGEM by LC/MS/MS; assay type: in vivo, mouse; details: DFU, WT male mice, vs pre-administration value (FIG. 11)
Procedure: Urinary PGEM was measured by LC/MS/MS as follows: First, 10 ng of hexadeuterated PGEM (9,15-dioxo-11α-hydroxy-2,3,4,5-tetranor-prostan-1,20-dioic-17,17,18,18,19,19-d6 acid; Cayman Chemical Co., Ann Arbor, Mich.) was added as an internal standard to 0.1 ml of mouse urine. Next, 50 μL of 1 g/ml methoxyamine HCl was added, and the sample was mixed and allowed to stand at room temperature for 15 minutes. The sample was then diluted to 1.0 ml with water and loaded on a StrataX solid phase extraction (SPE) cartridge (Phenomenex, Torrance, Calif.). The SPE was eluted with 1.0 mL of 5% acetonitrile in ethyl acetate, dried, dissolved in 200 μL 10% acetonitrile in water, and injected for LC/MS/MS analysis. Transitions monitored were m/z 385→336 for the endogenous PGE-M and 391→342 for the internal standard.
PGE2 biosynthesis was assessed in mice having inhibited or deleted PGHS-1 or PGHS-2 function using a mass spectrometric assay (FIG. 9) for the major PGE metabolite, 11α-hydroxy-9,15-dioxo-2,3,4,5-tetranor-prostane-1,20-dioic acid (PGEM). […] Thus, unlike PGI2 biosynthesis, both PGHS-1 and PGHS-2 each contribute substantially to PGE2 biosynthesis.

mice [3] = details: mouse, in vivo
Procedure: (i) Photochemical vascular injury: This model is an adaptation of one previously described method (Yu et al., 2005, J. Clin. Invest. 115:986-95). Briefly, mice were anesthetized with sodium pentobarbital (80 mg/kg, intraperitoneally). The left common carotid artery was isolated and a Doppler flow probe (Model 0.5 VB, Transonic Systems Co., NY) was applied. The probe was connected to a flowmeter (Transonic Model T105) and interpreted with a computerized data acquisition program (Powerlab, AD Instruments, CO). Just before i.v. injection of Rose Bengal (50 mg/kg body weight, Fisher Scientific, NJ), a 1.5-mW green light laser (540 nm) (Melles Griot Inc, Carlsbad, Calif.) was applied to the desired site of injury at a distance of 5 cm from the carotid artery. Blood flow was monitored up to 120 minutes after injection or until stable occlusion occurred. Stable occlusion was defined as a blood flow of 0 ml/min for 3 minutes. To confirm occlusive thrombosis, carotid arterial segments subjected to injury were excised and embedded in paraffin. Sections were then stained with hematoxylin and eosin.

[4] = target: T1, thromboxane receptor (TP) (Mus musculus, UniProt P30987); experiment: U46619 induced sudden death; assay type: in vivo; details: PGHS-2 KO and PGHS-2 Y385F mice compared to WT, 0.2 mg/kg intravenous, within 15 min
T1 construct: they received a rapid intravenous injection of U46619 (0.2 mg/kg in PBS, Cayman Chemical) via the tail vein; from tissue; host or cells: whole animal: WT, PGHS-2 KO and PGHS-2 Y385F mice, in vivo
T1 sequence (P30987 1-341): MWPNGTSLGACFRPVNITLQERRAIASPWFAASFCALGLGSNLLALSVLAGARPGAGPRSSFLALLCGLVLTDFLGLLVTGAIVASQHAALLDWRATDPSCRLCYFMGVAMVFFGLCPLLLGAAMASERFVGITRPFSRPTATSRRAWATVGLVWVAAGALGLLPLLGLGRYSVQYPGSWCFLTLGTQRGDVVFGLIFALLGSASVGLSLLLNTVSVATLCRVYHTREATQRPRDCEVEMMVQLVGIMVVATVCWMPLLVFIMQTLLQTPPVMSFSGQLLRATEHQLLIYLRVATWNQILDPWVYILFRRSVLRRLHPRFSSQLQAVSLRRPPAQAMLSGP
Procedure: (iii) U46619 induced sudden death: This model is based on a model established previously (Momi et al., 2000, Eur. J. Pharmacol. 397: 177-85). Briefly, mice (3-4 months old) were anesthetized with sodium pentobarbital. Then they received a rapid intravenous injection of U46619 (0.2 mg/kg in PBS, Cayman Chemical) via the tail vein. Heart rate was monitored for 15 minutes prior to sacrifice.

mice [5] = experiment: Tail cuff blood pressure measurement; assay type: in vivo, mouse
Procedure: (i) Tail Cuff measurement: Resting systolic blood pressure was measured in conscious, 3-4 month old mice using a computerized, noninvasive tail-cuff system, BP-2000 Blood Pressure Analysis System™ (Visitech Systems, Inc. Apex, N.C.). […] Mice were adapted to the system for 14 days by taking blood pressure measurements during 25 minute long sessions. The sessions were held once daily between 15:00 and 18:00. After the adaptation period, blood pressure was recorded daily for 3 consecutive days in the same way. Data were collected and analyzed using updated BP 2000 Analysis Software.

IP (PGI2 receptor) [6] = experiment: Direct measurement of blood pressure (MAP) after i.v. cicaprost; assay type: in vivo, mouse; details: IP-/- mice, 1 μg/kg intravenously
Procedure: (§1) (iii) Direct measurement of blood pressure: Mice were anesthetized (ketamine 100 mg/kg, acepromazine 5 mg/kg) and placed on a temperature-controlled panel. The right internal jugular vein and left carotid artery were cannulated with PE-10 tubing. The arterial catheter was connected to a Capto SP844 pressure transducer (Capto, Horten, Norway), and blood pressure (BP) was monitored continuously with a Powerlab/8SP system (AD Instruments Inc, Colorado Springs, Colo.), as previously described (Hui et al., 2004, Circulation 110: 3360-6; Rocca et al., 2000, Nat. Med. 6: 219-21). Blood pressure and heart rate were continuously monitored for 20-40 min until stable values were obtained. After the equilibration period and the baseline BP was recorded, mice were injected via the right internal jugular vein with cicaprost (1 μg/kg in 4 ml/kg saline) as a bolus. The same volume of saline was injected before cicaprost administration to exclude volume-mediated BP changes. The BP was continuously recorded until it returned to pretreatment baseline.
(§2) The cardiovascular consequences of deleting just one copy of the IP on cardiovascular function in vivo was studied. Mean arterial pressure (MAP) was measured directly via carotid artery catheterization in anesthetized WT, IP^+/−, and IP^−/− littermates on C57BL/6 genetic background, following administration of the IP agonist cicaprost (Cica) 1 μg/kg intravenously (FIG. 3). The maximal decline evoked by Cica in MAP was 36±3.5% from pretreatment baseline in WT, 24%±3.3% in IP+/− and 0% in IP−/− littermates(F=42, n=5; P<0.0001). […] A similar effect of IP deletion was seen on the inhibitory effect of 10 nM cicaprost on platelet aggregation induced by collagen 2 μg/ml ex vivo (FIG. 4). […] The impact of IP deletion on the time to thrombotic carotid arterial occlusion, induced by green laser activation of Rose Bengal, which causes free radical catalyzed vascular injury, was also gene-dose dependent (FIG. 5, left panel). The time to occlusion fell from 66.3±5.1 min in WTs to […] in IP^+/− to 29.7±7.6 min in IP^−/− mice (F=6.5, n=9-10, P<0.0055). Inhibition of PGHS-2 by DFU also accelerated thrombogenesis, from 59.4±10.4 min to 33.4±4.3 min (n=7-8, P<0.05; FIG. 5, right panel). Thus, the mean impact of DFU on time to occlusion (56.2% of WT value) was intermediate between that of IP^+/− ([…]) and IP^−/− (45.5%) mice.

IP (PGI2 receptor) [7] = target: T2, IP (PGI2 receptor) (Mus musculus, UniProt P43252); experiment: as above; assay type: in vivo; details: 1 μg/kg intravenously; for Maximal decline in MAP from pretreatment baseline: C57BL/6, anesthetized
T2 construct: anesthetized WT, IP^+/−, and IP^−/− littermates on C57BL/6 genetic background, following administration of the IP agonist cicaprost; from tissue; host or cells: whole animal: anesthetized WT, IP+/- and IP-/- mice, C57BL/6 background, in vivo
Procedure: as §1, §2

[8] = system: platelet aggregation induced by collagen; experiment: Whole blood platelet aggregation assay, collagen-induced, ex vivo; assay type: cell-based, mouse; details: 10 nM, collagen 2 μg/ml
Procedure: 250 μl blood was mixed with 750 μl of sodium chloride at 37° C. Platelet aggregation was performed using a 500 Whole Blood Lumi-Aggregometion System (Chrono-Log Corp, Havertown, Pa.) as previously described ([…] et al., 1983, Thromb. Haemost. 50: 852-6; Booth et al., 1998, Can. J. Physiol. Pharmacol. 76: 811-3; Emery et al., 1995, Arterioscler. Thromb. Vasc. Biol. 15: 748-53). Samples were pretreated with or without 10 nM cicaprost for 1 minute, and aggregation was initiated by addition of 2 μg/ml collagen.

mice [9] = experiment: Collagen induced platelet consumption; assay type: in vivo, mouse; details: WTs, PGHS-2 Y385F and PGHS-2 KO mice, 2 min after i.v. collagen plus epinephrine
Procedure: (ii) Collagen induced platelet consumption: Briefly, mice (8 weeks old) were weighed and anesthetized with sodium pentobarbital (80 mg/kg). 100 μl of a mixture of collagen (250 μg/ml) and epinephrine (15 μg/ml) in 0.9% NaCl was injected rapidly into the tail vein. […] After thorough mixing, platelets were counted by automated multispecies hematology analyzers (CDC Technologies), as previously described (Gresele et al, 1990, Thromb. Haemost. 64:80-6).

[10] = 3 month old mice, mixed C57BL/6×129/sv, regular chow

T2 sequence (P43252 1-412): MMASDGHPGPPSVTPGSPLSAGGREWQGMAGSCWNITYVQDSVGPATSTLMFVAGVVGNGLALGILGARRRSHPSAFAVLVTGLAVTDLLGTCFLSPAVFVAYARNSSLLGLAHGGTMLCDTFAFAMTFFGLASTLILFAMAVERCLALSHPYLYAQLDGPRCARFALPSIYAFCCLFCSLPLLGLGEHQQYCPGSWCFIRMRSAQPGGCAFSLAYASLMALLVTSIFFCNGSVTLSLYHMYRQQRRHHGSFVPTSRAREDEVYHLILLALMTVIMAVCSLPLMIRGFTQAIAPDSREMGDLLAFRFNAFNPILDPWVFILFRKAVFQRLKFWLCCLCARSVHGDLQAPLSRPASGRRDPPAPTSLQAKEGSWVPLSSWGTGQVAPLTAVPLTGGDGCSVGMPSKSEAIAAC

With `CC1(C)OC(=O)C(c2cccc(F)c2)=C1c1ccc(S(C)(=O)=O)cc1` [DFU, 5,5-dimethyl-3-(3-fluorophenyl)-4-(4-methylsulphonyl)phenyl-2(5H)-furanone] the “Urinary 2,3-dinor 6-keto PGF1α (PGIM)” value [1] was “depressed significantly”, the “Urinary PGEM” value [2] was “depressed PGEM significantly” and the “Mean impact on time to occlusion, % of WT value” (mice [3]) was 56.2%.

For `CCCCC[C@H](O)/C=C/[C@@H]1[C@@H](C/C=C\CCCC(=O)O)[C@H]2CO[C@@H]1C2` [U46619], the “Frequency of sudden death” value [4] was “augmented”.

In the case of `Cc1ccc(-c2cc(C(F)(F)F)nn2-c2ccc(S(N)(=O)=O)cc2)cc1` [celecoxib], the “Diastolic blood pressure compared to WTs” value (mice [5]; [10]) is reported as “elevated significantly”, the “Systolic blood pressure compared to WTs” value (mice [5]; [10]) is reported as “elevated significantly” and the “Hypertensive effect in PGHS-1 KDs compared to WTs” value (mice [5]; PGHS-1 KD mice) is reported as “attenuated”.

`CCC#CC[C@H](C)[C@H](O)C#C[C@@H]1[C@H]2C/C(=C/COCC(=O)O)C[C@H]2C[C@H]1O` [cicaprost] was tested, and the “Duration of the depressor response” value (IP (PGI2 receptor) [6]) was “no change in MAP”, the “Maximal decline in MAP from pretreatment baseline” value (“Maximal decline in MAP” for short) (IP (PGI2 receptor) [6]; C57BL/6, anesthetized) was 0% and the “Duration of the depressor response” value (IP (PGI2 receptor) [7]; IP+/- mice) was 5.3 ± 1.1 min. The “Maximal decline in MAP” value (IP (PGI2 receptor) [7]; IP+/- mice) was 24%±3.3, the “Duration of the depressor response” value (IP (PGI2 receptor) [7]; WT mice) was 10.8 ± 2.5 min and the “Maximal decline in MAP” value (IP (PGI2 receptor) [7]; WT mice) was 36±3.5%. The “Inhibition of platelet aggregation” value ([8]; IP-/- mice) was “not achieved” and the inhibition at 0.01 µM ([8]; Mus musculus, Platelet, IP+/- mice, read-out: Inhibition of platelet aggregation, % of the maximal inhibition observed in WTs) was 86.7%.

collagen was tested, and the Circulating platelet count (mice [9]) was “dose-dependent decrese in platelets”.
